Source: publication PMC12613848, “First in human phase 1 study of DT2216, a selective BCL-xL degrader, in patients with relapsed/refractory solid malignancies” (Journal of Hematology & Oncology, 2025)
“Also recorded” adds a separate entry of the source.

Columns and labels:
[1] = system: Myla cells (CTCL); experiment: In vitro IC90, Myla cells; type: cell-based
Experimental: (§1) Fig. 7 Mean Plasma concentration of DT2216 in 4 patients infused with DT2216 at 0.4 mg/kg over time against in vitro inhibitory concentration 90%(IC90) for various cell lines. SCLC – small cell lung cancer; OC- ovarian carcinoma; T-ALL – T cell acute lymphoblastic leukemia, CTCL – Cutaneous T cell lymphoma TEXT PRINTED IN THE PICTURE: DT2216: IC90 (≈ 1000 nM) for H146 cells (SCLC); IC90 (< 1000 nM) for OVCAR4 cells (OC); IC90 (≈ 500 nM) for MOLT-4 cells (T-ALL); IC90 (< 100 nM) for OVCAR4 cells (OC)* (*In combination with Carboplatin); IC90 (≈ 100 nM) for H146 cells (SCLC)** (**In combination with SN-38/irinotecan); IC90 (30 nM) for Myla cells (CTCL)

[2] = biological target: T1, VHL (Homo sapiens, UniProt P40337); experiment: VHL expression in peripheral white blood cells of patients; type: in vivo; conditions: 0.4 mg/kg IV, 4 patients, after C1D1
T1 construct: assessment of BCL-XL and VHL levels in peripheral white blood cells (WBC); endogenous in cells; host or cells: peripheral white blood cells of trial patients
T1 sequence (P40337 whole entry): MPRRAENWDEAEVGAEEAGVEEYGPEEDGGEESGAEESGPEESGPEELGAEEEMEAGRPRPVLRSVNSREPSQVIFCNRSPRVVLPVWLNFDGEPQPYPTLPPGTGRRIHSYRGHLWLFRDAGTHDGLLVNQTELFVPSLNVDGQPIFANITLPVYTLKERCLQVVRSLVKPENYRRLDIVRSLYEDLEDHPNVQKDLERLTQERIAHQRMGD
Experimental: (§2) Premedication prior to each infusion was at the discretion of the investigator or according to institutional guidelines. Patient assessment and follow-up procedures can be found in the schedule of assessments in this study. The clinical response was evaluated using RECIST v1.1 per protocol. Blood samples were collected for PK analysis before and after post-infusion at defined intervals, along with platelet counts. Exploratory biomarkers include (but are not limited to) the assessment of BCL-XL and VHL levels in peripheral white blood cells (WBC).
Fig. 6 Changes in BCL-XL and VHL expression after infusion of DT2216 at 0.4 mg/kg in 4 patients. […] Right panel depicts fold changes in VHL expression in the same patients after infusion of DT2216.

[3] = biological target: T2, BCL-XL (Homo sapiens, UniProt Q07817); experiment: BCL-XL levels in peripheral leukocytes of patients by western blotting; type: in vivo; conditions: 0.4 mg/kg IV, 4 patients, after C1D1
T2 construct: endogenous in cells; host or cells: peripheral leukocytes (WBC) of trial patients
T2 sequence (Q07817 whole entry): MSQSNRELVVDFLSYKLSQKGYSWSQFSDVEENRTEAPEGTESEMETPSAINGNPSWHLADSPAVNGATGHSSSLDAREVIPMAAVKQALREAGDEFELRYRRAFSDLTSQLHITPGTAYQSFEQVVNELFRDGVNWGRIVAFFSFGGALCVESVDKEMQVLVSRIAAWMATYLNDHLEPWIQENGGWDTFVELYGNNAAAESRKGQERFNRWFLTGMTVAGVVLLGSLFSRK
Experimental: Methods A dose escalation study using a 3 + 3 design with doses ranging from 0.04 to 0.4 mg/kg IV twice weekly (BIW) was performed. Eligible subjects had solid tumors of any histology that had progressed on standard treatment and had measurable tumor by RECIST v1.1. Tumor assessment was performed at 8-week intervals. BCL-XL levels were measured in peripheral leukocytes by western blotting. Results Twenty patients were enrolled, with a median age of 60.5 year; 60% were female. Only one dose-limiting toxicity was observed, grade 4 thrombocytopenia that resolved within 48 h. Stable disease, observed in 20% of the patients. The lowest platelet count in the first cycle ranged from 24,000 to 297,000. In all cases, the platelet count recovered to > 50,000 within 4 days and > 75,000 within 1 week. […] The median overall survival was 7.9 months. […] Conclusions Based on the rapid recovery of transient thrombocytopenia that occurred only in the first cycle and the degradation of BCL-XL in peripheral leukocytes, the RP2D of DT2216 is 0.4 mg/kg IV BIW. (NCT04886622)
Premedication prior to each infusion was at the discretion of the investigator or according to institutional guidelines. Patient assessment and follow-up procedures can be found in the schedule of assessments in this study. The clinical response was evaluated using RECIST v1.1 per protocol. […]

[4] = biological target: T2, BCL-XL; experiment: BCL-XL levels in WBCs from a normal human donor after incubation with DT2216; type: cell-based; conditions: increasing concentrations, approximately 16 hours incubation, beta actin control
Experimental: Fig. 5 Levels of BCL-XL in WBCs from a normal human donor. They were determined after incubation with increasing concentrations of DT2216 as depicted in the figure for approximately 16 hours. […] BCL-XL expression after incubation with DT2216 in comparison to beta actin which acts as control in the figure

[5] = system: H146 cells (SCLC); experiment: In vitro IC90, H146 cells; type: cell-based; conditions: Homo sapiens, NCI-H146, DT2216 alone
Experimental: as §1

[6] = system: MOLT-4 cells (T-ALL); experiment: In vitro IC90, MOLT-4 cells; type: cell-based; conditions: Homo sapiens
Experimental: as §1

[7] = system: advanced solid tumors; experiment: Efficacy in patients (RECIST v1.1, Kaplan-Meier survival); type: in vivo, human
From the text: The primary objective of the escalation phase was to determine the recommended phase 2 dose (RP2D) for DT2216. The secondary objectives were to characterize the adverse event (AE) profile, determine the pharmacokinetic profile (PK)/pharmacodynamic profile (PD) and describe preliminary evidence of efficacy using objective response rate (ORR), disease control rate (DCR), and progression-free survival (PFS) based on Response Evaluation Criteria in Solid Tumors (RECIST) v1.1. Exploratory objectives were to characterize the baseline and on-treatment expression of BCL-XL and VHL on blood lymphocytes, as well as other circulating biomarkers. Exploratory objectives included characterizing the baseline and on-treatment changes in platelet count and correlating them with DT2216 drug levels.
Patients were allowed a maximum of two intra-patient dose escalations. Patients received DT2216 by intravenous infusion on days 1 and 4 weekly for at least 4 weeks, with each cycle consisting of a 28-day cycle for a maximum duration of 1 year until disease progression, unacceptable toxicity, or other withdrawal criteria, as listed in the protocol. The extent of disease was evaluated using imaging studies and disease-appropriate tumor markers every 8 weeks from day 1 of the first cycle. RP2D was established based on MTD as well as other relevant data, including clinical signals of activity, PK, and PD data.
as §2
Descriptive statistics were used to display dose escalation data and results. Continuous variables, including baseline characteristics, will be summarized by reporting the number of observations, mean, standard deviation, median, minimum, and maximum values. Categorical/discrete variables will be summarized using frequency tables that show the number and percentage of subjects within a category. Time-to-event analysis was performed using the Kaplan–Meier method. The overall response rate (ORR) and its 2-sided 95% confidence interval (CI) were calculated using the Clopper-Pearson method.

[8] = system: OVCAR4 cells (OC); experiment: In vitro IC90, OVCAR4 cells; type: cell-based; conditions: Homo sapiens, OVCAR-4, DT2216 alone
Experimental: as §1

[9] = system: BCL-XL; set-up: method as in PMID 31792461; conditions: MOLT-4 T-ALL xenografts, after a single dosing; cited from earlier work
[10] = Cohort 1 (0.04 mg/kg), 1 treated
[11] = Cohort 2 (0.08 mg/kg), 1 treated
[12] = Cohort 3 (0.12 mg/kg), 1 treated
[13] = Cohort 4 (0.24 mg/kg), 7 treated
[14] = Cohort 5 (0.32 mg/kg), 6 treated
[15] = Cohort 6 (0.40 mg/kg), 4 treated

Cc1ncsc1-c1ccc([C@H](C)NC(=O)[C@@H]2C[C@@H](O)CN2C(=O)[C@@H](NC(=O)CCCCCC(=O)N2CCN(CC[C@H](CSc3ccccc3)Nc3ccc(S(=O)(=O)NC(=O)c4ccc(N5CCN(CC6=C(c7ccc(Cl)cc7)CCC(C)(C)C6)CC5)cc4)cc3S(=O)(=O)C(F)(F)F)CC2)C(C)(C)C)cc1 [DT2216]
IC90 [1]: 30 nM
VHL expression in peripheral WBCs [2]: did not demonstrate a simultaneous drop
BCL-XL expression in peripheral leukocytes [3]: rapid and sustained degradation of BCL-XL; also recorded: decreases rapidly after infusion of DT2216 and is persistent
BCL-XL levels in normal human donor WBCs [4]: capable of completely degrading BCL-XL; also recorded: dose dependent degradation
IC90 [5]: ~1000 nM
IC90 [6]: ~500 nM
patients who discontinued treatment because of objective disease progression ([7]; 15/20 patients): 75%
stable disease (best response per RECIST v1.1), share of patients ([7]; 20 patients, 0.04 to 0.4 mg/kg IV BIW): 20%
Treatment discontinuation: Clinical progression of neoplastic disease (subjects) [7, 10]: 1
Treatment discontinuation: Objective progression of neoplastic disease (subjects) [7, 10]: 0
Treatment discontinuation: Clinical progression of neoplastic disease (subjects) [7, 11]: 0
Treatment discontinuation: Objective progression of neoplastic disease (subjects) [7, 11]: 1
Treatment discontinuation: Clinical progression of neoplastic disease (subjects) [7, 12]: 0
Treatment discontinuation: Objective progression of neoplastic disease (subjects) [7, 12]: 1
Treatment discontinuation: Clinical progression of neoplastic disease (subjects) [7, 13]: 2
Treatment discontinuation: Objective progression of neoplastic disease (subjects) [7, 13]: 4
Treatment discontinuation: Clinical progression of neoplastic disease (subjects) [7, 14]: 1
Treatment discontinuation: Objective progression of neoplastic disease (subjects) [7, 14]: 5
Treatment discontinuation: Clinical progression of neoplastic disease (subjects) [7, 15]: 0
Treatment discontinuation: Objective progression of neoplastic disease (subjects) [7, 15]: 4
median overall survival ([7]; Kaplan–Meier, 95% CI 4.0 – NE): 7.9 months
Treatment discontinuation: Clinical progression of neoplastic disease (subjects) ([7]; Total, 20 treated): 4
Treatment discontinuation: Objective progression of neoplastic disease (subjects) ([7]; Total, 20 treated): 15
median duration of response (stable disease) ([7]; human, in vivo): 107 days
target liver lesions versus baseline ([7]; one person, non-small cell lung adenocarcinoma, 0.24 mg/kg, after C4): decrease in size of target liver lesions
single-agent activity ([7]; patients with different advanced solid tumors): did not demonstrate single-agent activity
IC90 [8]: < 1000 nM
duration of BCL-XL degradation [9]: approximately 2 weeks
